Measured values as given in article PMC12040169 (PLOS Biology, 2025).

Assay: in vitro
Details: human, hela cells
For `CN(Cc1ccc(-c2ccc(S(C)(=O)=O)cc2)nc1)C1CCN(C(=O)Oc2ccc(F)cc2)CC1` [CBK166097], the viability at 28.5 h, 10 µM was 91.5%.

Same assay, conditions: human, hela cells, % viability
With `O=C(CCc1ccc(F)cc1)N1CCC(c2cccc(Cc3ccccc3)n2)CC1` [CBK286511] the viability at 28.5 h, 10 µM was 114%. `Cc1[nH]c2ccccc2c1C(=O)CSc1nc(N)cc(=O)[nH]1` [CBK297511] showed a viability at 28.5 h, 10 µM of 103%. `O=C(O)CC(NC(=O)C(c1ccccc1)c1ccccc1)c1ccco1` (stereo not drawn) [CBK268729] gave a viability at 28.5 h, 10 µM of 109%. `N#CCCCN1CCCC2(C1)NCCc1c2[nH]c2cc(F)ccc12` (stereo not drawn) [CBK039826] showed a viability at 28.5 h, 10 µM of 117%. With `Cc1ncccc1COC(=O)NCCc1ccccn1` [CBK200137] the viability at 28.5 h, 10 µM was 104%. Molecule `CCCCn1nc(C2CC2)nc1-c1cnn2cc(C)cnc12` [CBK306683] has a viability at 28.5 h, 10 µM of 89.6%. Molecule `Cc1ccc(C(=O)O)cc1NC(=O)C(C)Oc1cccc(Cl)c1` (stereo not drawn) [CBK268331] has a viability at 28.5 h, 10 µM of 95.7%. Molecule `COc1ccc(-c2noc([C@@H]3C[C@H](NC(=O)c4ccc(F)cc4)CN3C)n2)cc1` [CBK288861] has a viability at 28.5 h, 10 µM of 118%. Work on `O=C(c1cc(S(=O)(=O)NCc2ccco2)c(Cl)cc1Cl)N1CCCC1` [CBK306076] yielded a viability at 28.5 h, 10 µM of 87.8%. Molecule `O=C(O)CSc1nnc(SCc2cccc3ccccc23)s1` [CBK266215] has a viability at 28.5 h, 10 µM of 81.4%. For `Fc1cc(Br)c(CNCc2ccno2)c(N2CCCCC2)c1F` [CBK304723], the viability at 28.5 h, 10 µM was 86.8%. Molecule `C/C(=N\NC(=O)c1nonc1N)c1ccc(Cl)cc1` [CBK025664] has a viability at 28.5 h, 10 µM of 107%. `COCC(C)NC(=O)Cn1cccc2cc(C(F)F)nc1-2` (stereo not drawn) [CBK285011] gave a viability at 28.5 h, 10 µM of 104%. In the case of `CC(C)c1nsc(NCCc2nnc3n2CCCC3)n1` [CBK306425], the viability at 28.5 h, 10 µM is reported as 92.4%. Molecule `O=C(Nc1nn(Cc2c(F)cccc2Cl)cc1Cl)c1cccnc1` [CBK268154] has a viability at 28.5 h, 10 µM of 79.1%. `Cc1ccc(OCC(=O)Nc2ncc(Cc3ccc(F)cc3)s2)cc1` [CBK293930] showed a viability at 28.5 h, 10 µM of 82.2%. For `CC1(C)CC(NC2=CC(=O)CC2)CC(C)(C)N1` [CBK028997], the viability at 28.5 h, 10 µM was 115%. `O=C(O)c1ccc(NC(=O)c2cc(S(=O)(=O)N3CCCCC3)cs2)cc1` [CBK265722] showed a viability at 28.5 h, 10 µM of 101%. Molecule `Nn1c(CSc2ccccn2)nnc1CSc1ccccn1` [CBK266987] has a viability at 28.5 h, 10 µM of 90.8%. In the case of `CN(CCN1CCCCC1)C(=O)c1c2c(nn1C)CCCC2` [CBK281905], the viability at 28.5 h, 10 µM is reported as 102%. `Fc1ccc(COc2cccc(CNCc3ccccn3)c2)cc1` [CBK269987C] gave a viability at 28.5 h, 10 µM of 109%. `CC(C)n1c(=O)n(CC(=O)N(C)C2CCCCC2)c2cccnc21` [CBK283695] showed a viability at 28.5 h, 10 µM of 95.6%. `COc1cc(C)c(Cl)c(C)c1S(=O)(=O)NCc1ccc2c(c1)OCO2` [CBK266518] gave a viability at 28.5 h, 10 µM of 96%. `O=C(c1ccc2nccnc2c1)N1CCCc2ccccc21` [CBK200257] showed a viability at 28.5 h, 10 µM of 95.3%. Molecule `COCc1cc(C[C@H]2CNCC[C@H]2CC(=O)N2CCCCC2)no1` [CBK288899] has a viability at 28.5 h, 10 µM of 109%. Work on `CCCC/C=C/c1cncc(N2CCN(Cc3ccccn3)CC2)n1` [CBK066096] yielded a viability at 28.5 h, 10 µM of 93.4%. Molecule `OC(CN1CCNCC1)Cn1c2ccc(Cl)cc2c2cc(Cl)ccc21` (stereo not drawn) [CBK094277G] has a viability at 28.5 h, 10 µM of 68.1%. With `Nc1nc(=O)c2cnc3c(F)cccc3c2s1` [CBK291249] the viability at 28.5 h, 10 µM was 91.1%. Molecule `O=C(NCCCn1ccnc1)c1cc2c(ccc3ccccc32)oc1=O` [CBK263543] has a viability at 28.5 h, 10 µM of 86%. `COc1ccc2[nH]c([C@H]3CCN(S(C)(=O)=O)C3)nc2c1` [CBK289377] showed a viability at 28.5 h, 10 µM of 111%. For `Cc1cccc(-c2ccc(CC3(C(N)=O)CCN(C(=O)CCc4ccccc4)CC3)cc2)c1` [CBK285796], the viability at 28.5 h, 10 µM was 110%. Molecule `CCN1CCN(C(=O)c2ccccc2N(Cc2ccccc2)S(=O)(=O)c2ccc(C)cc2)CC1` [CBK266827] has a viability at 28.5 h, 10 µM of 91.6%. `O=C1CSC(Nc2nc(-c3ccccc3)cs2)=N1` [CBK026880] showed a viability at 28.5 h, 10 µM of 104%. `Cc1ccc(N2CC(C(=O)NCCc3ccc(S(N)(=O)=O)cc3)CC2=O)cc1` (stereo not drawn) [CBK267531] gave a viability at 28.5 h, 10 µM of 84.4%.

Same assay, conditions: human, hela cells, % viability, bulk resorufin, single well
For `COCCn1cc(C(=O)N2CCN(C)CC2C)c2ccccc21` (stereo not drawn) [CBK305123], the viability at 28.5 h, 10 µM was 102%.
